This is an account of results in PMC6525171, “15-deoxy-Δ^12,14-Prostaglandin J2 inhibits human soluble epoxide hydrolase by a dual orthosteric and allosteric mechanism” (Communications Biology, 2019).

Positions count from the first letter of the chain named.

Holding throughout (type): biochemical
For assay [1], the target named is T1, human soluble epoxide hydrolase (hsEH CTD) (Homo sapiens, UniProt P34913, C423S/C522S).
T1 construct: gene EPHX2; C-terminal domain, T230-M555
T1 sequence (P34913 230-555 C423S/C522S): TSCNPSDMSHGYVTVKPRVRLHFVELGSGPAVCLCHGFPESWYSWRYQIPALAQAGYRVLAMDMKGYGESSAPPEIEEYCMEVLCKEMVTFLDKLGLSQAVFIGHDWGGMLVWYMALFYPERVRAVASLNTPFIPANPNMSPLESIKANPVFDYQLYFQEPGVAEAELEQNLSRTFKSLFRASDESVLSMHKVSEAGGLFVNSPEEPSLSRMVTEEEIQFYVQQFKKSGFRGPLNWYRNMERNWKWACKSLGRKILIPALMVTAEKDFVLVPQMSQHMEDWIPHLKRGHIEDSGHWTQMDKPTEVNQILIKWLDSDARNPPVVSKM
The assay can be described thus: PHOME spectrofluorimetric assay, Ki by Cheng-Prusoff.

Assay [2] deals with T2, human soluble epoxide hydrolase (hsEH CTD) (Homo sapiens, UniProt P34913, C423S).
T2 construct: gene EPHX2; C-terminal domain, T230-M555
T2 sequence (P34913 230-555 C423S): T1 sequence (P34913 230-555 C423S/C522S) with S293C
Kind of assay: HPLC, UV and CD of purified covalent adduct; PHOME activity of adduct vs apoprotein.

For assay [3], the target named is T3, human soluble epoxide hydrolase (hsEH CTD) (Homo sapiens, UniProt P34913).
T3 construct: gene EPHX2; C-terminal domain, T230-M555
T3 sequence (P34913 230-555): T1 sequence (P34913 230-555 C423S/C522S) with S194C, S293C
Kind of assay: X-ray crystal structure ([…] Å, non-covalent complex), STD-NMR; ESI-MS and LC-MS/MS of covalent adducts; Ki from PHOME fluorescence assay.

The target of assay [4] is T4, human soluble epoxide hydrolase (hsEH CTD) (Homo sapiens, UniProt P34913, C522S).
T4 construct: gene EPHX2; C-terminal domain, T230-M555
T4 sequence (P34913 230-555 C522S): T1 sequence (P34913 230-555 C423S/C522S) with S194C
Kind of assay: HPLC, UV and CD of purified covalent adduct; PHOME activity of adduct vs apoprotein.

As to `CCCCC/C=C/C=C1/C(=O)C=C[C@@H]1C/C=C/CCCC(=O)O` [15d-PGJ2], the results for the Ki in assay [1] and in assay [3] were 8.56 µM and 13 µM, respectively. The “HPLC, UV and CD of purified covalent adduct; PHOME activity of adduct vs apoprot” value in assay [2] is “with the single modification of C423S and C522S mutants inhibiting the enzyme to a lesser extent”; in assay [4], “with the single modification of C423S and C522S mutants inhibiting the enzyme to a lesser extent”.
